Structures can show the parent of a compound that is named as a salt.
Assays:
[1] = test system: motoneuron cells derived from iPS cells having SOD1-L144FVX mutation; assay: survival of motoneuron cells induced from ALS patient iPS cells (SOD1 mutation); details: for dose correlation in the protection effect on motoneuron cell having SOD1 mutation: FIG. 2, FIG. 6; for MN index (motoneuron cell survival number ratio as compared to negative control): SOD1-L144FVX motoneuron cells contacted with medicament for 7 days, negative control DMSO; for survival of motor neuron: familial ALS (mSOD1 ALS) motoneuron cells, 0, 0.01, 0.1, 1, 10 μM, n=6, p<0.05, FIG. 7; for cell survival rate improvement, SOD1 mutation / cell survival rate improving effect, significance, SOD1 mutation: added on day 7, survived motoneuron cells counted on day 14
[2] = test system: motoneuron cells derived from iPS cells of ALS patients having C9orf72 mutation; assay: survival of motoneuron cells induced from ALS patient iPS cells (C9orf72 mutation); assay type: cell-based, human; details: for cell survival rate improvement, C9orf72 mutation / cell survival rate improving effect, significance, C9orf72 mutation: added on day 7, survived motoneuron cells counted on day 14
[3] = test system: motoneuron cells derived from iPS cells of sporadic ALS patients; assay: survival of motoneuron cells induced from sporadic ALS patient iPS cells; assay type: cell-based, human; details: added on day 7, survived motoneuron cells counted on day 14

CC(O)CC(=O)O (racemic) [3-hydroxybutyric acid]
dose correlation in the protection effect on motoneuron cell having SOD1 mutation [1]: increase in the effect in a dose-dependent manner

CCN(CC)Cc1cc(Nc2ccnc3cc(Cl)ccc23)ccc1O [AMODIAQUINE DIHYDROCHLORIDE, AMODIAQUINE]
MN index (motoneuron cell survival number ratio as compared to negative control) [1]: 8.98

CN1CCc2cccc3c2[C@H]1Cc1ccc(O)c(O)c1-3 [APOMORPHINE HYDROCHLORIDE, APOMORPHINE]
MN index (motoneuron cell survival number ratio as compared to negative control) [1]: 7.26

O=C(Nc1c[nH]nc1-c1nc2cc(CN3CCOCC3)ccc2[nH]1)NC1CC1 [AT9283]
survival of motor neuron [1]: increased survival of motor neuron

CNC(=O)c1ccccc1Sc1ccc2c(/C=C/c3ccccn3)n[nH]c2c1 [Axitinib]
efficacy for ALS having C9orf72 mutation (conclusion from Tables 5 and 6) [2]: higher efficacy | cell survival rate improvement, C9orf72 mutation [2]: ○ (cell survival rate improvement not less than 20%) | cell survival rate improving effect, significance, C9orf72 mutation [2]: ○ (significant difference (p < 0.05)) | cell survival rate improvement, sporadic [3]: x (cell survival rate improvement less than 20%) | cell survival rate improving effect, significance, sporadic [3]: x (no significant difference (p ≧ 0.05)) | dose correlation in the protection effect on motoneuron cell having SOD1 mutation [1]: increase in the effect in a dose-dependent manner | MN index (motoneuron cell survival number ratio as compared to negative control) [1]: 7.35 | cell survival rate improvement, SOD1 mutation [1]: x (cell survival rate improvement less than 20%) | cell survival rate improving effect, significance, SOD1 mutation [1]: x (no significant difference (p ≧ 0.05))

CCOc1ccn(-c2ccc(F)cc2)c(=O)c1C(=O)Nc1ccc(Oc2ccnc(N)c2Cl)c(F)c1 [BMS 777607]
MN index (motoneuron cell survival number ratio as compared to negative control) [1]: 8.55

Cn1cnc2cc3c(Nc4cccc(Br)c4)ncnc3cc21 [BPIQ-I]
MN index (motoneuron cell survival number ratio as compared to negative control) [1]: 8.14

CCCCOC(=O)c1ccc(N)cc1 [BUTAMBEN]
MN index (motoneuron cell survival number ratio as compared to negative control) [1]: 7.39

Cc1ccc(NC(=O)c2ccc(CN3CC[C@H](N(C)C)C3)c(C(F)(F)F)c2)cc1Nc1nccc(-c2cncnc2)n1 [Bafetinib]
survival of motor neuron [1]: increased survival of motor neuron

CCNC(=O)CCC/C=C\C[C@@H]1[C@@H](/C=C/[C@@H](O)CCc2ccccc2)[C@H](O)C[C@@H]1O [Bimatoprost]
dose correlation in the protection effect on motoneuron cell having SOD1 mutation [1]: increase in the effect in a dose-dependent manner

COc1cc(Nc2c(C#N)cnc3cc(OCCCN4CCN(C)CC4)c(OC)cc23)c(Cl)cc1Cl [Bosutinib]
cell survival rate improvement, C9orf72 mutation [2]: ○ (cell survival rate improvement not less than 20%) | cell survival rate improving effect, significance, C9orf72 mutation [2]: ○ (significant difference (p < 0.05)) | cell survival rate improvement, sporadic [3]: ○ (cell survival rate improvement not less than 20%) | cell survival rate improving effect, significance, sporadic [3]: ○ (significant difference (p < 0.05)) | cell survival rate improvement, SOD1 mutation [1]: ○ (cell survival rate improvement not less than 20%) | cell survival rate improving effect, significance, SOD1 mutation [1]: ○ (significant difference (p < 0.05))

Cc1nc(N)sc1-c1ccnc(Nc2ccc(N3CCOCC3)cc2)n1 [CYC116]
MN index (motoneuron cell survival number ratio as compared to negative control) [1]: 8.14

CCN(CC)C(=O)c1ccc(Nc2nc(OCC3CCCCC3)c3nc[nH]c3n2)cc1 [Cdk2 Inhibitor IV, NU6140]
MN index (motoneuron cell survival number ratio as compared to negative control) [1]: 7.08

C[C@@H](Oc1cc(-c2cnn(C3CCNCC3)c2)cnc1N)c1c(Cl)ccc(F)c1Cl [Crizotinib (PF- 2341066), Crizotinib]
MN index (motoneuron cell survival number ratio as compared to negative control) [1]: 7.60

C[C@@H](Oc1cc(-c2cnn(C3CCNCC3)c2)cnc1N)c1c(Cl)ccc(F)c1Cl [Crizotinib]
cell survival rate improvement, C9orf72 mutation [2]: x (cell survival rate improvement less than 20%) | cell survival rate improving effect, significance, C9orf72 mutation [2]: ○ (significant difference (p < 0.05)) | cell survival rate improvement, sporadic [3]: x (cell survival rate improvement less than 20%) | cell survival rate improving effect, significance, sporadic [3]: x (no significant difference (p ≧ 0.05)) | efficacy for ALS having SOD1 mutation (conclusion from Tables 5 and 6) [1]: higher efficacy | dose correlation in the protection effect on motoneuron cell having SOD1 mutation [1]: increase in the effect in a dose-dependent manner | cell survival rate improvement, SOD1 mutation [1]: ○ (cell survival rate improvement not less than 20%) | cell survival rate improving effect, significance, SOD1 mutation [1]: ○ (significant difference (p < 0.05))

CC1=NN(c2ccccc2)C(=O)C1 [Edaravone]
dose correlation in the protection effect on motoneuron cell having SOD1 mutation [1]: increase in the effect in a dose-dependent manner

Cn1cc(C2=C(c3cn(C4CCN(Cc5ccccn5)CC4)c4ccccc34)C(=O)NC2=O)c2ccccc21 [Enzastaurin]
MN index (motoneuron cell survival number ratio as compared to negative control) [1]: 9.84

O=C(O)CCC(=O)c1ccc(-c2ccccc2)cc1 [FENBUFEN]
MN index (motoneuron cell survival number ratio as compared to negative control) [1]: 7.22

CC1(C)O[C@@H]2C[C@H]3[C@@H]4C[C@H](F)C5=CC(=O)C=C[C@]5(C)[C@H]4[C@@H](O)C[C@]3(C)[C@]2(C(=O)CO)O1 [FLUNISOLIDE]
MN index (motoneuron cell survival number ratio as compared to negative control) [1]: 7.86

COc1ccc2c(c1OC)C(=O)OC2C1c2cc3c(cc2CCN1C)OCO3 [HYDRASTINE (1R,9S)]
MN index (motoneuron cell survival number ratio as compared to negative control) [1]: 7.53

Oc1ccc(O)cc1 [HYDROQUINONE]
MN index (motoneuron cell survival number ratio as compared to negative control) [1]: 7.96

Cc1ccc(NC(=O)c2ccc(CN3CCN(C)CC3)cc2)cc1Nc1nccc(-c2cccnc2)n1 [Imatinib]
survival of motor neuron [1]: increased survival of motor neuron

O=C1Nc2ccccc2/C1=C1/Nc2ccccc2/C1=N\O [Indirubin-3′-monoxime]
MN index (motoneuron cell survival number ratio as compared to negative control) [1]: 7.54

O=C(c1ccc(/C=C/c2n[nH]c3ccccc23)cc1)N1CCNCC1 [KW 2449]
MN index (motoneuron cell survival number ratio as compared to negative control) [1]: 7.72

Cn1cnc(-c2cc3nccc(Oc4ccc(NC(=S)NC(=O)Cc5ccccc5)cc4F)c3s2)c1 [MGCD-265]
MN index (motoneuron cell survival number ratio as compared to negative control) [1]: 7.62

Cc1cn(-c2cc(NC(=O)c3ccc(C)c(Nc4nccc(-c5cccnc5)n4)c3)cc(C(F)(F)F)c2)cn1 [Nilotinib]
survival of motor neuron [1]: increased survival of motor neuron

O=C(/C=C/C=C/c1ccc2c(c1)OCO2)N1CCCCC1 [PIPERINE]
MN index (motoneuron cell survival number ratio as compared to negative control) [1]: 7.39

Cc1ccc(Nc2nccc(N(C)c3ccc4c(C)n(C)nc4c3)n2)cc1S(N)(=O)=O [Pazopanib Hydrochloride]
MN index (motoneuron cell survival number ratio as compared to negative control) [1]: 9.53

Cc1ccc(Nc2nccc(N(C)c3ccc4c(C)n(C)nc4c3)n2)cc1S(N)(=O)=O [Pazopanib]
cell survival rate improvement, C9orf72 mutation [2]: ○ (cell survival rate improvement not less than 20%) | cell survival rate improving effect, significance, C9orf72 mutation [2]: ○ (significant difference (p < 0.05)) | cell survival rate improvement, sporadic [3]: x (cell survival rate improvement less than 20%) | cell survival rate improving effect, significance, sporadic [3]: x (no significant difference (p ≧ 0.05)) | cell survival rate improvement, SOD1 mutation [1]: x (cell survival rate improvement less than 20%) | cell survival rate improving effect, significance, SOD1 mutation [1]: ○ (significant difference (p < 0.05))

Cc1cc2nc3c(=O)[nH]c(=O)nc-3n(C[C@H](O)[C@H](O)[C@H](O)CO)c2cc1C [RIBOFLAVIN]
MN index (motoneuron cell survival number ratio as compared to negative control) [1]: 9.55

O=C(c1ccc(OCCN2CCCCC2)cc1)c1c(-c2ccc(O)cc2)sc2cc(O)ccc12 [Raloxifene]
dose correlation in the protection effect on motoneuron cell having SOD1 mutation [1]: increase in the effect in a dose-dependent manner

CNC(=O)c1cc(Oc2ccc(NC(=O)Nc3cc(C(C)(C)C)nn3-c3ccc4ncccc4c3)c(F)c2)ccn1 [Rebastinib]
survival of motor neuron [1]: increased survival of motor neuron

O=C1c2ccccc2-c2n[nH]c3cccc1c23 [SP600125]
MN index (motoneuron cell survival number ratio as compared to negative control) [1]: 8.38

COc1ccc2c(c1)/C(=C/c1c[nH]cn1)C(=O)N2 [SU9516]
MN index (motoneuron cell survival number ratio as compared to negative control) [1]: 8.39

CCN(CC)CCNC(=O)c1c(C)[nH]c(/C=C2\C(=O)Nc3ccc(F)cc32)c1C [Sunitinib]
cell survival rate improvement, C9orf72 mutation [2]: ○ (cell survival rate improvement not less than 20%) | cell survival rate improving effect, significance, C9orf72 mutation [2]: ○ (significant difference (p < 0.05)) | cell survival rate improvement, sporadic [3]: ○ (cell survival rate improvement not less than 20%) | cell survival rate improving effect, significance, sporadic [3]: ○ (significant difference (p < 0.05)) | cell survival rate improvement, SOD1 mutation [1]: ○ (cell survival rate improvement not less than 20%) | cell survival rate improving effect, significance, SOD1 mutation [1]: ○ (significant difference (p < 0.05))

NCCNc1ncc(C(N)=O)c(Nc2cccc(C(F)(F)F)c2)n1 [Syk Inhibitor II]
MN index (motoneuron cell survival number ratio as compared to negative control) [1]: 7.59

Cc1cc(Nc2cc(N3CCN(C)CC3)nc(Sc3ccc(NC(=O)C4CC4)cc3)n2)n[nH]1 [VX-680, tozasertib]
MN index (motoneuron cell survival number ratio as compared to negative control) [1]: 9.58

O=C1NC(=O)c2c1c(-c1ccccc1Cl)cc1[nH]c3ccc(O)cc3c21 [Weel Inhibitor]
MN index (motoneuron cell survival number ratio as compared to negative control) [1]: 7.18

Cc1c(C)c2c(c(C)c1O)CC[C@@](C)(CCC[C@H](C)CCC[C@H](C)CCCC(C)C)O2 [alpha- TOCHOPHEROL, alpha-TOCHOPHEROL]
MN index (motoneuron cell survival number ratio as compared to negative control) [1]: 9.46

Bosutinib [Bosutinib (SKI-606)]
MN index (motoneuron cell survival number ratio as compared to negative control) [1]: 7.20

Sunitinib Malate
MN index (motoneuron cell survival number ratio as compared to negative control) [1]: 8.13
